Test results: patent US20230097707A1, “METHODS AND ARTICLES FOR KEEPING FOOD FRESHER FOR LONGER AND SHELF-LIFE EXTENSION TO ENHANCE FOOD SECURITY AND SAFETY” (priority 2021, published 2023)

Assays:
[1] = small animal oral toxicity test; format: in vivo; details: albino rat, aqueous solutions derived from concentrate (EPA/MRID)
Description: Example 1 is a small animal oral toxicity test of 3-(tri-methoxysilyl)propyldimethyl octadecyl ammonium chloride in aqueous solutions derived from concentrate. The small animal was an albino rat (EPA/MRID.) The result acute oral LD50 at 12.27 g (grams) per kg (kilogram.) That is, the lethal dose in 50% of the test subjects 12.27 grams per kilogram of body weight. This translates to a 100 kg person ingesting 1.227 kg of the raw material (or 1723 liters) at one time. The monomer poses no ingestion hazard.

[2] = tested on: Staphylococcus aureus ATCC 6538; details: coated paper, 0.15% by weight of BKC; cited from earlier work
[3] = tested on: Escherichia coli ATCC 8739; details: coated paper, 0.15% by weight of BKC; cited from earlier work

Row | Compound | acute oral LD50 [1] | inhibition [2] [%] | inhibition [3] [%]
1 | CCCCCCCCCCCCCCCCCC[N+](C)(C)CCC[Si](OC)(OC)OC.[Cl-] [1-Octadecanaminium, N,N-dimethyl-N-[3-(trimethoxysilyl)propyl]-, chloride (1:1)] | 12.27 g (grams) per kg (kilogram.) |  | 
2 | N-Alkyl-N-benzyl-N,N-dimethylammonium chloride [BKC] |  | ~100 | ~100
